Literature values in patent US20070196518A1, “Composition and Method for Mitigating a Negative Effect of Alcohol Consumption” (priority 2005, published 2007).

Settings: on average, in subjects who consumed alcohol

Cc1ncc(CO)c(CO)c1O [Vitamin B6, Pyridoxine]
decrease in the number of hangover symptoms: 50%
